Biological target: T1, Orexin receptor type 2 (Homo sapiens, UniProt O43614)
T1 sequence (O43614 whole entry): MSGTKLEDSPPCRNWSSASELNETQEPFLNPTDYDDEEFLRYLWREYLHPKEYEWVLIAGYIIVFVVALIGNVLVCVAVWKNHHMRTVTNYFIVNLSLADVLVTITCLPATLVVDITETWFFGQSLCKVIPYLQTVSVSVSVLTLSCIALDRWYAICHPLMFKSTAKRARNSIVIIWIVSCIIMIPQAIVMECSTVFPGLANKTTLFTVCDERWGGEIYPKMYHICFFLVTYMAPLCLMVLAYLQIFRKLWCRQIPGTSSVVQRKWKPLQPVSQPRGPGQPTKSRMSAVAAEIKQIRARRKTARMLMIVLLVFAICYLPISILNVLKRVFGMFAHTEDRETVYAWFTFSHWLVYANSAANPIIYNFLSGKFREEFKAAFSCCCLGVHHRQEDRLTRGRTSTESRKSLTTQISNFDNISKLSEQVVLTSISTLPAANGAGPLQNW
Experiment: FLIPR Ca2+ Flux Assay: FLIPR Ca2+ Flux Assay- (Okumura et al., Biochem. Biophys. Res. Comm. 280:976-981, 2001). In a typical experiment the OX1 and OX2 receptor antagonistic activity of the compounds of the present invention was determined in accordance with the following experimental method. For intracellular calcium measurements, Chinese hamster ovary (CHO) cells expressing the rat orexin-1 receptor or the human orexin-2 receptor, are grown in Iscove's modified DMEM containing 2 mM L-glutamine, […], 1% hypoxanthine-thymidine supplement, 100 U/ml penicillin, 100 μg/ml streptomycin and 10% heat-inactivated fetal calf serum (FCS). The cells are seeded at 20,000 cells/well into Becton-Dickinson black 384-well clear bottom sterile plates coated with poly-D-lysine. All reagents were from GIBCO-Invitrogen Corp. The seeded plates are incubated overnight at […]. and 5% CO2. Ala-6,12 human orexin-A as the agonist is prepared as a 1 mM stock solution in 1% bovine serum albumin (BSA) and diluted in assay buffer (HBSS containing 20 mM HEPES, 0.1% BSA and 2.5 mM probenecid, pH7.4) for use in the assay at a final concentration of 70 pM. Test compounds are prepared as 10 mM stock solution in DMSO, then diluted in 384-well plates, first in DMSO, then assay buffer. […]
Assay type: cell-based

## CC(=O)N(c1cc(C#N)ccn1)[C@@H]1CC[C@@H](C)N(C(=O)c2ccccc2-n2nccn2)C1
  IC50: 1780 nM

Source: ChEMBL document CHEMBL5726126, “2-pyridylamino-4-nitrile-piperidinyl orexin receptor antagonists” (2017)
